Measured values reported in patent publication US10875872B2, “Heteroaryl amide compounds as sting activators” (Incyte Corporation, priority 2018, dated 2020).

Tested on: IRF3
Test: IRF3 activation assay in THP-1 Dual cells (QUANTI-Blue reporter)
Type: cell-based
Details: Homo sapiens, THP1-Dual, 24 hours incubation, culture supernatant, absorbance at 620-655 nm
Description: THP-1 Dual Cells (Invivogen) were maintained in RPMI1640 medium with addition of 10% FBS, 100 μg/mL zeocin, 10 μg/mL blasticidin. Cells were added in a 96-well flat bottom assay plate at 100,000 per well in 100 μL complete RPMI medium. Test compounds were prepared by serial dilution in complete RPMI medium and 100 μL test compounds were transferred to each corresponding well. The assay plate was incubated at 37° C., 5% CO2 for 24 hours. After the overnight incubation, 20 μL of the culture supernatants were collected, followed by addition of 180 μL of QUANTI-Blue (Invivogen) to assess IRF3 activity. The amount of IRF3 activation was assessed by reading the absorbance at 620-655 nm with a microplate reader 2 hours later. The culture supernatant from the untreated THP-1 cells was used as the negative control. To determine the NF-κB activation, another 20 μL of culture supernatant were transferred to a 96-well white plate, followed by addition of 50 μL of Quanti-Lucim assay solution (Invivogen). The amount of NF-κB activation induced by the test compounds were determined by the luminescence above the untreated control. EC50 determination was performed by fitting the curve of percent control activity versus the log of the compound concentration using the GraphPad Prism 6.0 software.

| EC50 [nM] | SMILES |
| --- | --- |
| 500 to 1000 | CCn1nc(C)cc1C(=O)Nc1nc2cc(C(N)=O)cc(C)c2n1C/C=C/Cn1c(NC(=O)c2cc(C)nn2CC)nc2cc(C(N)=O)c3c(c21)OCCO3 [Example 1, (E)-1-(4-(5-carbamoyl-2-(1-ethyl-3-methyl-1H-pyrazole-5-carboxamido)-7-methyl-1H-benzo[d]imidazol-1-yl)but-2-en-1-yl)-2-(1-ethyl-3-methyl-1H-pyrazole-5-carboxamido)-7,8-dihydro-1H-[1,4]dioxino[2′,3′:3,4]benzo[1,2-d]imidazole-5-carboxamide] |
| < 100 | CCn1nc(C)cc1C(=O)Nc1nc2cc(C(N)=O)cc(C)c2n1C/C=C/Cn1c(NC(=O)c2cc(C)nn2CC)nc2cc(C(N)=O)c3ccoc3c21 [Example 2, (E)-1-(4-(5-carbamoyl-2-(1-ethyl-3-methyl-1H-pyrazole-5-carboxamido)-7-methyl-1H-benzo[d]imidazol-1-yl)but-2-en-1-yl)-2-(1-ethyl-3-methyl-1H-pyrazole-5-carboxamido)-1H-benzofuro[6,7-d]imidazole-5-carboxamide] |
| < 100 | CCn1nc(C)cc1C(=O)Nc1nc2cc(C(N)=O)cc(OCCCOC(=O)NCCC(=O)O)c2n1C/C=C/Cn1c(NC(=O)c2cc(C)nn2CC)nc2cc(C(N)=O)c3ccoc3c21 [Example 3, (E)-3-(((3-((5-carbamoyl-1-(4-(5-carbamoyl-2-(1-ethyl-3-methyl-1H-pyrazole-5-carboxamido)-1H-benzofuro[6,7-d]imidazol-1-yl)but-2-en-1-yl)-2-(1-ethyl-3-methyl-1H-pyrazole-5-carboxamido)-1H-benzo[d]imidazol-7-yl)oxy)propoxy)carbonyl)amino)propanoic acid] |
